Measurements taken from patent US8133847B2, “Pyrido[2,3-B]pyrazine derivatives useful as herbicidal compounds” (Syngenta Limited, priority 2006, dated 2012).

Columns and labels:
Assay type in all cases: in vivo
[1] = tested on: Alopecurus myosuroides (ALOMY); assay: Example B3 herbicidal action, post-emergence; settings: 1000 g/ha, after 13 days, 100=total damage to plant, 0=no damage to plant
Procedure: (§1) Seeds of a variety of test species were sown in sterilised compost in small pots. After cultivation for seven days (post-emergence) in controlled conditions in the glasshouse (at 24/16° C., day/night; 14 hours light; 65% humidity) the plants were sprayed with 1 mg of the active ingredient, formulated in 2.5 ml acetone/water (50:50) solution, which is equivalent to 1000 g/ha. Once the foliage was dry, the pots were kept in the glasshouse (at 24/16° C., day/night; 14 hours light; 65% humidity), and were watered twice daily. After 13 days the test was evaluated (100=total damage to plant, 0=no damage to plant).

[2] = tested on: Amaranthus retroflexus (AMARE); assay: Example B3 herbicidal action, post-emergence; settings: 1000 g/ha, after 13 days, 100=total damage to plant, 0=no damage to plant
Procedure: as §1

[3] = tested on: Chenopodium album (CHEAL); assay: Example B3 herbicidal action, post-emergence; settings: 1000 g/ha, after 13 days, 100=total damage to plant, 0=no damage to plant
Procedure: as §1

[4] = tested on: Digitaria sanguinalis (DIGSA); assay: Example B3 herbicidal action, post-emergence; settings: 1000 g/ha, after 13 days, 100=total damage to plant, 0=no damage to plant
Procedure: as §1

[5] = tested on: Amaranthus retroflexus (AMARE); assay: Example B2 herbicidal action, post-emergence, pots in glasshouse; settings: Application post-emergence, evaluated after 13 days (100=total damage to plant; 0=no damage to plant)
Procedure: (§2) Seeds of a variety of test species were sown in standard soil in pots. After 8 days cultivation (post-emergence) under controlled conditions in a glasshouse (at 24/16° C., day/night; 14 hours light; 65% humidity), the plants were sprayed with an aqueous spray solution derived from the formulation of the technical active ingredient in acetone/water (50:50) solution containing 0.5% Tween 20 (polyoxyethylene sorbitan monolaurate, CAS RN 9005-64-5). The test plants were then grown in a glasshouse under controlled conditions in a glasshouse (at 24/16° C., day/night; 14 hours light; 65% humidity) and watered twice daily. After 13 days, the test was evaluated (100=total damage to plant; 0=no damage to plant).

[6] = tested on: Echinochloa crusgalli (ECHCG); assay: as above; settings: Application post-emergence, evaluated after 13 days (100=total damage to plant; 0=no damage to plant)
Procedure: as §2

[7] = tested on: Ipomea hederaceae (IPOHE); assay: as above; settings: Application post-emergence, evaluated after 13 days (100=total damage to plant; 0=no damage to plant)
Procedure: as §2

[8] = tested on: Setaria faberi (SETFA); assay: as above; settings: Application post-emergence, evaluated after 13 days (100=total damage to plant; 0=no damage to plant)
Procedure: as §2

[9] = tested on: Solanum nigrum (SOLNI); assay: as above; settings: Application post-emergence, evaluated after 13 days
Procedure: as §2

[10] = tested on: test plants (a variety of test species); assay: as above; settings: evaluated after 13 days, 100=total damage to plant, 0=no damage to plant
Procedure: as §2

Structure (SMILES)	damage to plant, Alopecurus myosuroides (ALOMY) [1]	damage to plant, Amaranthus retroflexus (AMARE) [2]	damage to plant, Chenopodium album (CHEAL) [3]	damage to plant, Digitaria sanguinalis (DIGSA) [4]	damage to plant, Amaranthus retroflexus (AMARE) [5]	damage to plant, Echinochloa crusgalli (ECHCG) [6]	damage to plant, Ipomea hederaceae (IPOHE) [7]	damage to plant, Setaria faberi (SETFA) [8]	damage to plant, Solanum nigrum (SOLNI) [9]	damage to the test plants [10]
CCn1c(=O)c(-c2c(F)c([N+](=O)[O-])cc(F)c2Cl)c(OC(=O)C(C)(C)C)c2nccnc21 [Compound C158]	0	9	10	0						
CCn1c(=O)c(-c2cc(-c3ccc(Cl)cc3)ccc2C)c(OC(=O)C(C)C)c2nccnc21 [Compound C156]	8	0	0	3						
Cc1cccc([N+](=O)[O-])c1-c1c(OC(=O)C(C)(C)C)c2nccnc2n(C)c1=O [Compound C161]	0	6	2	5						
O=c1[nH]c2nccnc2c(O)c1-c1ccc(C(F)(F)F)cc1Br [Compound A43]	0	7	8	0						
CCn1c(=O)c(-c2c(Cl)ccc(Cl)c2Cl)c(OC(=O)C(C)C)c2nccnc21 [Compound C107]	0	10	10	2						
Cn1c(=O)c(-c2ccccc2)c(OC(=O)C(C)(C)C)c2nccnc21 [Compound C137]					9	0	5	0	0	no damage
CC(C)(C)C(=O)Oc1c(-c2cc(F)c(Cl)cc2Cl)c(=O)[nH]c2nccnc12 [Compound B48]										no damage
COc1cccc(-c2c(O)c3nccnc3[nH]c2=O)c1OC [Compound A41]	3	0	6	6						
CCn1c(=O)c(-c2ccc(C(F)(F)F)cc2[N+](=O)[O-])c(OC(=O)C(C)(C)C)c2nccnc21 [Compound C141]	0	10	7	0						
O=c1[nH]c2nccnc2c(O)c1-c1ccccc1 [Compound A22]										no damage
CC(=O)Oc1c(-c2ccc(Cl)cc2Cl)c(=O)n(C(C)C)c2nccnc12 [Compound C7]	0	9	7	3						
CCn1c(=O)c(-c2c(Cl)cc(C(F)(F)F)cc2Cl)c(OC(=O)C(C)(C)C)c2nccnc21 [Compound C129]					10	4	9	6	10	
Cn1c(=O)c(-c2cc(F)c(Cl)cc2Cl)c(OC(=O)C(C)(C)C)c2nccnc21 [Compound C149]					9	3	5	3	7	
CCn1c(=O)c(-c2cc(F)c(Cl)cc2Cl)c(OC(=O)C(C)C)c2nccnc21 [Compound C152]					10	4	6	2	9	
CCn1c(=O)c(-c2cc(F)c(Cl)cc2Cl)c(OC(=O)C(C)(C)C)c2nccnc21 [Compound C153]					9	1	5	1	8	
Cc1ccc(C)c(-c2c(OC(=O)C(C)(C)C)c3nccnc3n(C)c2=O)c1 [Compound C134]					9	0	6	2	10	
CC(C)(C)C(=O)Oc1c(-c2ccc(C(F)(F)F)cc2Br)c(=O)[nH]c2nccnc12 [Compound B54]	0	3	8	0						
CC(C)C(=O)Oc1c(-c2cc(F)ccc2Cl)c(=O)n(C)c2nccnc12 [Compound C142]					10	8	9	7	10	
CCn1c(=O)c(-c2c(F)ccc(Br)c2Cl)c(OC(=O)C(C)(C)C)c2nccnc21 [Compound C155]					10	3	9	0	10	
CC(C)C(=O)Oc1c(-c2c(F)ccc(Br)c2Cl)c(=O)n(C)c2nccnc12 [Compound C144]					10	4	9	2	10	
CCn1c(=O)c(-c2ccccc2OC(F)F)c(OC(=O)C(C)(C)C)c2nccnc21 [Compound C169]					9	0	7	0	9	
CCn1c(=O)c(-c2cccc(C(F)(F)F)c2Cl)c(OC(=O)C(C)(C)C)c2nccnc21 [Compound C132]	0	10	8	0						
Cn1c(=O)c(-c2c(F)c([N+](=O)[O-])cc(F)c2Cl)c(OC(=O)C(C)(C)C)c2nccnc21 [Compound C157]	0	6	8	0						
Cn1c(=O)c(-c2ccccc2OC(F)F)c(OC(=O)C(C)(C)C)c2nccnc21 [Compound C168]					10	3	5	2	8	
